# Assay results: ChEMBL document CHEMBL1151803, “Melanin synthesis inhibitors from Lespedeza cyrtobotrya” (J Nat Prod, 2009); call rule not given here
# Legend:
# [1] = Inhibition of melanin synthesis in NHEM after 24 hrs by liquid scintillation; type: functional, Homo sapiens
# [2] = Cytotoxicity against NHEM cells assessed as cell viability 24 hrs by WST-8 assay; type: cell-based; details: human
Compound,IC50 ([1]; read-out: IC50) [µM],Activity [2],IC50 [1]
CC1(C)C=Cc2c(ccc(C(=O)CCc3ccc(O)cc3)c2O)O1,2,Non-toxic,
Cc1c(O)cc2c(c1O)C(=O)[C@H](O)[C@@H](c1ccc(O)cc1)O2,,Non-toxic,Not Active
Cc1c(O)cc2occ(-c3ccc(O)cc3)c(=O)c2c1O,,Non-toxic,Not Active
CC(C)=CCc1cc([C@@H]2CC(=O)c3ccc(O)cc3O2)ccc1O [ABYSSINONE II],2,Non-toxic,
OC[C@H]1O[C@@H](Oc2ccc(O)cc2)[C@H](O)[C@@H](O)[C@@H]1O [ARBUTIN],2.2,,
CC(C)=CCc1cc2c(cc1O)O[C@H](c1ccc(O)cc1)CC2=O [BAVACHIN],18,Non-toxic,
COc1c(O)ccc(-c2coc3cc(O)cc(O)c3c2=O)c1OC [BAVAISOFLAVANONE],38.4,Non-toxic,
CC(C)=CCc1c(O)ccc2c1O[C@H]1c3ccc(O)c(CC=C(C)C)c3OC[C@@H]21 [ERYBRAEDIN A],2,Non-toxic,
CC(C)=CCc1cc2c(cc1O)OC[C@H]1c3ccc(O)c(CC=C(C)C)c3O[C@@H]21 [ERYBRAEDIN C],5.5,Non-toxic,
COc1c2c(cc3c1[C@@H]1Oc4ccc5c(c4[C@@H]1CO3)C=CC(C)(C)O5)OC(C)(C)C=C2 [GANGETININ],4.6,Non-toxic,
O=c1c(-c2ccc(O)cc2)coc2cc(O)cc(O)c12 [GENISTEIN],29.2,Non-toxic,
Oc1ccc(O)cc1 [HYDROQUINONE],103,,
CC(C)=CCc1c(O)ccc(C(=O)/C=C/c2ccc(O)cc2)c1O [ISOBAVACHALCONE],1.4,Non-toxic,
CC(C)=CCc1c(O)cc(O)c2c1O[C@H](c1ccc(O)cc1O)CC2=O [LEACHIANONE G],,Non-toxic,Not Active
CC(C)=CCc1c(O)ccc2c1O[C@H](c1ccc(O)cc1)[C@@H](O)C2=O [LESPECYRTIN A1],,Non-toxic,Not Active
C=C(C)C1Cc2c(ccc(C(=O)/C=C/c3ccc(O)cc3)c2O)O1 (stereo not drawn) [LESPECYRTIN B1],1.3,Non-toxic,
CC1(C)C=Cc2c(O)ccc(C(=O)/C=C/c3ccc(O)cc3)c2O1 [LESPECYRTIN B2],1,Non-toxic,
CC(C)(O)C1Cc2c(O)ccc(C(=O)/C=C/c3ccc(O)cc3)c2O1 (stereo not drawn) [LESPECYRTIN B3],9.1,Non-toxic,
C=C(C)C1Cc2c(ccc(C(=O)CCc3ccc(O)cc3)c2O)O1 (stereo not drawn) [LESPECYRTIN C1],3,Non-toxic,
COc1cc([C@@H]2COc3cc(O)c(CC=C(C)C)cc3C2)c(O)cc1O [LESPECYRTIN D1],2.1,Non-toxic,
CC1(C)C=Cc2cc3c(cc2O1)OC[C@H]1c2ccc4c(c2O[C@@H]31)C=CC(C)(C)O4 [LESPECYRTIN E1],,Non-toxic,
CC(C)=CCc1c(O)c2c(c3c1[C@@H]1COc4cc5c(cc4[C@@H]1O3)C=CC(C)(C)O5)C=CC(C)(C)O2 [LESPECYRTIN E2],3.7,Non-toxic,
CC(C)=CCc1cc2c(cc1O)OC[C@H]1c3c4c(c(O)c(CC=C(C)C)c3O[C@@H]21)OC(C)(C)C=C4 [LESPECYRTIN E3],0.4,Non-toxic,

Compound,IC50 ([1]; read-out: IC50) [µM],Activity [2],IC50 [1]
CC(C)=CCc1c(O)c2c(c3c1O[C@H]1c4cc5c(cc4OC[C@@H]31)OC(C)(C)C=C5)C=CC(C)(C)O2 [LESPECYRTIN E4],4.5,Non-toxic,
CC(C)=CCc1c(O)c(C)cc2c1O[C@H]1c3cc4c(cc3OC[C@@H]21)OC(C)(C)C=C4 [LESPECYRTIN E5],1.5,Non-toxic,
CC(C)=CCc1c(O)ccc2c1O[C@H]1c3cc(CCC(C)(C)O)c(O)cc3OC[C@@H]21 [LESPECYRTIN E6],3.4,Non-toxic,
COc1cc2c(cc1O)O[C@H]1c3cc4c(cc3OC[C@@H]21)OC(C)(C)[C@H](O)C4 [LESPECYRTIN E7],16,Non-toxic,
CC(C)=CCc1c(O)c(O)cc2c3c(oc12)-c1ccc(O)cc1OC3 [LESPECYRTIN F1],,Non-toxic,Not Active
CC(C)=CCc1cc2c(cc1O)OCc1c-2oc2c(CC=C(C)C)c(O)c(O)cc12 [LESPECYRTIN F2],15.9,Non-toxic,
CC(C)=CCc1c(O)c(O)cc2c1oc1c3ccc(O)cc3oc(=O)c21 [LESPECYRTIN G1],,Non-toxic,Not Active
CC(C)=CCC1=C(O)C(Cc2c(-c3cc(CC=C(C)C)c(O)cc3O)oc3c(CC=C(C)C)c(O)c(O)cc23)=C[C@@H]2c3c(c4cc(CC=C(C)C)c(O)cc4oc3=O)O[C@H]12 [LESPECYRTIN H1],8.9,Non-toxic,
CC(C)=CCC1=C(O)C(C(=O)c2c(-c3cc(CC=C(C)C)c(O)cc3O)oc3c(CC=C(C)C)c(O)c(O)cc23)=C[C@@H]2c3c(c4cc(CC=C(C)C)c(O)cc4oc3=O)O[C@H]12 [LESPECYRTIN H2],,Non-toxic,Not Active
CC(C)=CCC1=C(O)C(C(=O)c2c(-c3cc4c(cc3O)OC(C)(C)C=C4)oc3c(CC=C(C)C)c(O)c(O)cc23)=C[C@@H]2c3c(c4cc(CC=C(C)C)c(O)cc4oc3=O)O[C@H]12 [LESPECYRTIN H3],10.1,Non-toxic,
CC(C)=CCC1=C(O)C(C(=O)c2c(-c3cc(CC=C(C)C)c(O)cc3O)oc3c4c(c(O)cc23)OC(C)(C)C=C4)=C[C@@H]2c3c(c4cc(CC=C(C)C)c(O)cc4oc3=O)O[C@H]12 [LESPECYRTIN H4],6.2,Non-toxic,
CC(C)=CCc1cc2c(cc1O)OC[C@H]1c3cc(C)c(O)c(CC=C(C)C)c3O[C@@H]21 [LESPEFLORIN G4],3.2,Non-toxic,
CC(C)=CCc1cc2c(cc1O)oc(=O)c1c3cc(O)c(O)c(CC=C(C)C)c3oc21 [LESPEFLORIN I2],25.7,Non-toxic,
CC(C)=CCc1cc(-c2oc3c(CC=C(C)C)c(O)c(O)cc3c2C(=O)c2cc3c(c(CC=C(C)C)c2O)O[C@H]2c4cc(CC=C(C)C)c(O)cc4OC[C@@H]32)c(O)cc1O [LESPEFLORIN J3],,Non-toxic,
CC(C)=CCCC1(C)C=Cc2c(ccc(C(=O)/C=C/c3ccc(O)cc3)c2O)O1 (stereo not drawn) [LESPEOL],2.4,Non-toxic,
CC(C)=CCc1cc(/C=C/C(=O)c2ccc(O)cc2O)ccc1O [LICOAGROCHALCONE A],3.2,Non-toxic,
O=C1C[C@@H](c2ccc(O)cc2)Oc2cc(O)ccc21 [LIQUIRTIGENIN],14.7,Non-toxic,
O=C1C[C@@H](c2ccc(O)cc2)Oc2cc(O)cc(O)c21 [NARINGENIN],73.5,Non-toxic,
CC(C)=CCc1cc(-c2coc3cc(O)ccc3c2=O)ccc1O [NEOBAVAISOFLAVONE],9.4,Non-toxic,
CC1(C)C=Cc2c(ccc3c2O[C@H]2c4ccc(O)cc4OC[C@@H]32)O1 [PHASEOLIN],7.5,Non-toxic,
CC(C)=CCc1c(O)ccc2c1O[C@H]1c3ccc(O)cc3OC[C@@H]21 [PHASEOLLIDIN],8.7,Non-toxic,
CC(C)=CCc1c(O)cc2occ(-c3ccc(O)cc3O)c(=O)c2c1O [UNCINANONE A],5.4,Non-toxic,
CC(C)=CCC/C(C)=C/Cc1c(O)ccc(C(=O)/C=C/c2ccc(O)cc2)c1O [XANTHOANGELOL],0.98,Non-toxic,
